Source: patent US20140243396A1, “METHOD OF TREATING MUCOEPIDERMOID CARCINOMA” (DANA-FARBER CANCER INSTITUTE, INC., priority 2011, published 2014)

Experiments:
[1] = a few small 2003 studies; cited from earlier work
[2] = in vivo; cited from earlier work
HSY cells = assay: cAMP measurement, enzyme immunoassay; type: cell-based; conditions: inhibitors
Source text: (§1) FIG. 5 illustrates inhibition of PDE4B increased cellular cAMP levels and inhibited PI3-kinase signaling. […] Columns: mean, bars: SD (n=3). B. Knock-down of PDE4B increased MEC cell cAMP level. n=3. **p<0.01, compared to control cells. Columns: mean, bars: SD (n=3). C. […] The same blot was stripped and probed with AKT or β-actin antibody. Image was cropped and auto-leveled by Photoshop. A representative of three independent experiments.
(§2) Cells were trypsinized and washed once with 1×PBS after treatment. The cell pellet was re-suspended in 100 μl of 0.1M HCL. cAMP amount was measure by Direct Cyclic AMP Enzyme Immunoassay Kit (#900-066, Assay Designs, Inc., Ann Arbor, Mich.) according to the manufacturer's protocol. The acetylated version of the kit was used.

H3118 cells = assay: cAMP measurement, enzyme immunoassay; type: cell-based; conditions: compared to DMSO control
Source text: as §1, §2

Row | SMILES | effective in treating renal colic [1] [%] | adverse effects frequency [2] [%] | effect on cAMP levels (in words) (HSY cells) | increase of cAMP levels (H3118 cells) [fold]
1 | CCOc1ccc(/C=C2\NCCc3cc(OCC)c(OCC)cc32)cc1OCC [Drotaverine] | ~80 | 0.9 | – | –
2 | C=C[C@@]1(C)CC(=O)[C@]2(O)[C@@]3(C)[C@@H](O)CCC(C)(C)[C@@H]3[C@H](O)[C@H](OC(C)=O)[C@@]2(C)O1 [forskolin] | – | – | no effect | 4
